This is an account of results in a melting point compilation (Tetko et al.; mined from patent text by program, amines drawn as free bases though some values may be those of a salt).

A value given as a limit tells only on which side of the number the result lay.

What is called melting point is the temperature, or range, at which the solid turns liquid.

In turn, `COc1cc(C2CCN(C)CC2)ccc1Nc1ncc2ccc(-c3cccc(S(=O)(=O)NC(C)(C)C)c3)n2n1` displayed a melting point of 189 to 198 °C.

The compound `COc1ccc(C(=O)Nc2ccccc2)cc1NC(=S)Nc1ccc(Cl)c(C(F)(F)F)c1` registered a melting point of 172 to 173 °C.

The compound `COc1cc(-c2nc3ccccc3[nH]2)cc([N+](=O)[O-])c1O` gave a melting point of 198 to 200 °C.

Compound `COC(OC)c1c(SC(F)(F)F)c(C#N)nn1-c1c(Cl)cc(C(F)(F)F)cc1Cl` had a melting point of 93 °C.

Turning to `CC(C)(C)OC(=O)NCc1ccnc(Cl)n1`, the melting point was 86 to 88 °C.

`Cc1c(-c2ccccc2)c(N2CC[C@@H](N(C)C)C2)c2oc(C(=O)N(C)C)nc2c1C#N` came in with a melting point of 67 to 70 °C.

The compound `COc1ccc(OC)c(C=CC(=O)N(C)O)c1` showed a melting point of 111 to 112 °C.

`COc1ccnc(CSc2nc3cc4c(cc3[nH]2)OC(F)C(F)(F)O4)c1` (stereo not drawn) yielded a melting point of 139 to 140 °C.

The compound `COC(=O)C(C)c1ccc2c(c1)Cc1cc([N+](=O)[O-])ccc1-2` (stereo not drawn) had a melting point of 105 to 107 °C.

`CCOC(=O)c1cc2cc(-c3ccc(C(C)O)cc3)ccc2o1` (stereo not drawn): the melting point lay in the range of 108 to 109 °C.

`O=C(c1ccccc1)c1cnn2c1NCCC2c1ccncc1` (stereo not drawn) registered a melting point of 186 to 189 °C.

Turning to `CCCc1nc2c(N)nc3cccnc3c2n1CC1(O)CCOC1` (stereo not drawn), the melting point lay in the range of 171 to 173 °C.

In the case of `CN(CCCCNC(=O)c1cc2ccccc2s1)C1CCc2ncsc2C1` (stereo not drawn), the melting point came out at 105 °C.

Consider `CC1=C(Nc2ccc(C3=NNC(=O)CC3)cc2)CCC1=O`, for which the melting point is 284 to 285 °C.

In the case of `O=C(O)c1cnccc1CCCOc1cccnc1Oc1cccc(Cl)c1`, the melting point fell in the range of 142 to 144 °C.

Compound `O=C(NCCSC(c1ccccc1)(c1ccccc1)c1ccccc1)c1cc2cccc(OCc3ccccc3)c2[nH]1` displayed a melting point of 156 to 157 °C.

In turn, `CC1Cc2c(c3cccnc3n(-c3ccc(Cl)c(Cl)c3)c2=O)O1` (stereo not drawn) returned a melting point of 273 to 274 °C.

As to `COC(=O)c1sccc1N=NN(C)C`, the melting point is 74 to 76 °C.

As to `CC(=O)NCc1ccc(CN2CCN(c3ccccc3)CC2)cc1N`, the melting point lay within 148 to 149 °C.

In turn, `COC(=O)C1=C(C(=O)N(C(=O)CCl)c2cc(OC)c(Cl)cc2F)CCCC1` displayed a melting point of 109 °C.

On to `CC(C)CN1C(=O)[C@H](CCCC#N)C[C@H]1CO`, for which the melting point was in the range of 46 to 48 °C.

For the compound `COc1ccc(-c2nc(CN(C)C)nc3sc(C)c(C)c23)cc1OC`, the melting point lay within 118 to 120 °C.

As to `COc1cc(OC)nc(Oc2cccc(F)c2C(=O)O)n1`, the melting point is 133 to 134 °C.

In turn, `Cn1ncc(C(=O)N2CCC2)c1C(=O)Nc1ccn2nc(-c3cccc(F)n3)nc2c1` registered a melting point of 264 °C.

The compound `COCCOCc1c(CO)sc2c(=O)c(C(=O)NCc3ccc(Cl)cc3)cn(C)c12` registered a melting point of 167 to 168 °C.

Take `Cc1oc(-c2ccccc2)nc1C(=O)NN`: the melting point fell in the range of 144 to 146 °C.

Regarding `CC1(C)Oc2ccc(C#N)cc2[C@@H](NC=O)[C@@H]1O` (relative stereo), the melting point fell in the range of 228 to 230 °C.

Compound `Cc1ccc(-c2[nH]c(C3CCCCC3)nc2C(=O)Nc2nccs2)cc1` yielded a melting point of 199 to 200 °C.

As to `COc1cc2c(OC)c3c(c(-c4ccc5c(c4)OCO5)c2cc1OC)C(=O)OC3`, the melting point was 256 to 258 °C.

Compound `O=C(Nc1nccs1)c1nc(-c2cccc3ccccc23)[nH]c1-c1ccc(CO)cc1` yielded a melting point of 226 to 228 °C.

As to `NC(=O)NNC1=NC=Cc2ccccc2C1`, the melting point fell in the range of 188 to 189 °C.

`COc1ccc(Cn2cnc(C(=N)C#N)c2N)cc1` came in with a melting point of 92 to 94 °C.

Regarding `NS(=O)(=O)c1ccc(-n2nc(C(F)(F)F)cc2-c2ccc(F)cc2)cc1`, the melting point was in the range of 165 to 166 °C.

`Cc1ccc(-c2ccc3c(c2)C=C(C(=O)Nc2ccc(CSc4ccccc4)cc2)CCO3)cc1` showed a melting point of 176 to 177 °C.

As to `Cc1nnc(C=Cc2ccccc2OCC2CO2)s1` (stereo not drawn), the melting point was in the range of 134 to 135 °C.

Consider `COc1ccc(Cn2cnc(N)c3nc(C(C)C)nc2-3)cc1OC1CCCC1`, for which the melting point fell in the range of 190 to 193 °C.

In the case of `CC12CCC3c4ccc(O)cc4CC(Sc4ccc(Br)cc4)C3C1CCC2O` (stereo not drawn), the melting point fell in the range of 165 to 166 °C.

`Cc1nccn1Cc1c(C(=O)O)nc2c(=O)[nH]c3cc(C(F)(F)F)ccc3n12`: the melting point is > 250 °C.

On to `COc1ccc2c(C(=S)N(C)CC(N)=O)c(F)ccc2c1C(F)(F)F`, for which the melting point is 222 to 224 °C.

Regarding `CC1=NN(C)C(=O)C1C(=O)Nc1ccccc1` (stereo not drawn), the melting point is 231 to 233 °C.

Regarding `CC(=O)OC[C@H]1OC(OC(C)=O)[C@H](OC(C)=O)[C@@H](F)[C@@H]1OC(C)=O` (stereo partly drawn), the melting point was 115 to 121 °C.

`CCc1nnc(-c2ncc3[nH]c4cccc(OCc5ccccc5)c4c3c2COC)o1` displayed a melting point of 230 °C.

`COC(=O)c1ccc(OCc2ccc3ccccc3n2)cc1C1(c2ccccc2)CC2CCC1C2` (stereo not drawn) returned a melting point of 106 to 107 °C.

Compound `CC(=O)N[C@@H]1c2cnccc2OC(C)(C)[C@H]1O` (relative stereo) registered a melting point of 208 to 210 °C.

For `COc1ccc2c(c1)S(=O)(=O)c1cc(OC(C)=O)c(OC)cc1N2`, the melting point lay in the range of 265 to 268 °C.

For the compound `CC(C)(N)CNc1ccc(C2=NNC(=O)CC2)cc1`, the melting point lay in the range of 190 to 192 °C.

In turn, `O=C(Oc1ccccc1C(=O)Nc1cc(Cl)c(OC(=O)c2ccccc2)c(Cl)c1)c1ccccc1` registered a melting point of 157 to 160 °C.

Compound `NC(=O)c1nccc(Oc2ccc(N)cc2F)c1Cl` yielded a melting point of 217 to 218 °C.

As to `O=C(O)CCCCCc1nn(-c2ccccc2)c2c1CCCC2`, the melting point lay within 95 to 97 °C.

Take `CC(C)CCc1c(-c2ccc(S(C)(=O)=O)cc2)cnn(-c2cccc(Cl)c2)c1=O`: the melting point was 60 to 65 °C.

The compound `Cc1nnc2ccc(-c3ccc(F)cc3)nn12` displayed a melting point of 227 to 229 °C.

Compound `N#Cc1c(N)nc2ccc(N3CCN(Cc4ccccc4)CC3)cc2c1O` showed a melting point of 291 °C.

Turning to `COC(c1cc(C)no1)c1ccccc1COc1cc(Cl)ccc1Cl` (stereo not drawn), the melting point lay within 78.5 to 79.5 °C.

In the case of `CSc1c(CC(=O)O)ccc2c3ccccc3n(Cc3ccc(Cl)cc3)c12`, the melting point is 176 to 178 °C.

The compound `O=c1cc(-c2ccncc2)oc2ccccc12` displayed a melting point of 144 to 145 °C.

For the compound `CC(C)(C)NS(=O)(=O)c1ccc2c(NS(=O)(=O)N3CCOCC3)cccc2c1O`, the melting point was 105 to 110 °C.

With `Cc1nc2c(N)nc3cccnc3c2n1CC1(O)CCNCC1`, the melting point is > 260 °C.

Consider `COc1ccc2c(c1)C13CCCOC1(C)C(C2)N(C(=O)C1CCC1)CC3` (stereo not drawn), for which the melting point lay in the range of 166 to 167 °C.

Take `COc1cccc2c(=O)c(-c3cccc(C(F)(F)F)c3Cl)nn(Cc3ccc(F)cc3F)c12`: the melting point was 141 to 142 °C.

For the compound `COc1cc(C)c(NC(=O)CC(C)(C)C)c(C)c1Cc1ccc(C(C)C)cc1`, the melting point lay in the range of 181 to 182 °C.

The compound `CCCCCCCCCCCCCCCCCC(=O)OC1CCN(O)CC1` returned a melting point of 75 to 80 °C.

For the compound `CC1(C)COC(c2ccccc2-c2ccc(-c3ccccc3)cc2)=N1`, the melting point was 95 to 97 °C.

Take `CCOC1=NCCNC(c2ccccc2)=C1`: the melting point lay within 89 to 93.5 °C.
